According to BindingDB's records for doi:10.1021/jm900135r (Washington University, 2009):
Where a SMILES comes first, the peptide text is derived from it. [ ]: non-standard residue; d: D form. ξ: configuration not given here. Ile(3ξ) = CCC(C)[C@H](N)C(=O)O; Thr(3ξ) = CC(O)[C@H](N)C(=O)O

Target: Caspase-8 (Homo sapiens, UniProt Q14790)
Test: Enzyme Inhibition Assay
Protocol: The caspase enzymatic activity was determined by measuring the accumulation of a fluorogenic product. All assays were prepared in 96-well format. Recombinant caspase enzyme was first assayed to determine the optimal concentration for each experiment. Peptide inhibitors with known IC50 values were tested together with the compounds as a control for each caspase assay. […] Compounds were tested in duplicate and IC50 curves were calculated for all inhibitors assayed.

Sequence of Caspase-8 (Q14790 217-374 limits assumed): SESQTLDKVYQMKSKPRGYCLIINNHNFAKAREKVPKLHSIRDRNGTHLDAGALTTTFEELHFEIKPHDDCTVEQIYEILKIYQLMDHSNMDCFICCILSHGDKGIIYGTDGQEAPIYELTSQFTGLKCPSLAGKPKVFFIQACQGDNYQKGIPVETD
Sequence of Caspase-8 (Q14790 385-479 limits assumed): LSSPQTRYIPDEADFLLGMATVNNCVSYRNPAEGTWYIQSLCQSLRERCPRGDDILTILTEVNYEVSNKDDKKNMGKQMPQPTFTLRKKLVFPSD

IC50: 4.2 nM
SMILES: CCC(C)[C@H](NC(C)=O)C(=O)N[C@@H](CCC(=O)O)C(=O)N[C@H](C(=O)N[C@H](C=O)CC(=O)O)C(C)O (stereo partly drawn) [(4S)-4-{[(1S)-1-{[(2S)-1-carboxy-3-oxopropan-2-yl]carbamoyl}-2-hydroxypropyl]carbamoyl}-4-[(2S)-2-acetamido-3-methylpentanamido]butanoic acid] (Ac-[Ile(3ξ)]E[Thr(3ξ)]D-aldehyde)
